One assay relates to rmTLR2. The experiment in a line: Label-free TLR2 sensor, EIS detection of Pam3CSK4 (Example 7). Format: binding, mouse. As to conditions: for delta Rct %: 20 minutes; for Rct: before immersion 7784. As to the method:
TLR sensors were prepared using fresh, cleaned gold electrodes. The electrodes were immersed in a 2 mM 1-lipoic acid n-hydroxysuccinimide ester (LPA) ethanol solution for 48 hours at 277 K. The electrodes were then rinsed thoroughly using absolute ethanol and blown dry under nitrogen before incubation in 200 μg/ml rmTLR1, 200 μg/ml rmTLR2 and 200 μg/ml ‘rmTLR1 and 2’ mixture for 72 hours at 277 K. The rmTLR1 and 2 mixture was prepared by mixing 200 μg/ml rmTLR1 and 200 μg/ml rmTLR2 with a volume ratio of 1:1. The final concentration of each component was 100 μg/ml and the total concentration of the combined TLR protein content was 200 μg/ml. Following the supplier's recommended conditions, all TLRs were prepared in PBS buffer (pH˜7.4). The electrodes were rinsed with an excess volume of Milli-Q water and blown dry under nitrogen. An ethanolamine-tris buffer solution was prepared by dissolving 1.2 g of ethanolamine and 0.121 g of Tris base in 20 mL of water, the pH was adjusted to 8.4 using hydrochloric acid. TLR-immobilized electrodes were incubated in the ethanolamine solution for one hour at room temperature in order to block any remaining unreacted LPA amine sites. The fabricated sensors with immobilized, standalone rmTLR3, rmTLR4/MD-2 and rmTLR5, used for the selectivity test, were prepared using the same protocol described above.
Pam3CSK4 was dissolved in 10 mM HEPES aqueous buffer at pH˜7.4. The blocked rmTLR biosensors were incubated in Pam3CSK4 at various concentrations for 20 minutes. The electrodes were always washed thoroughly with same HEPES buffer (pH˜7.4) after the incubation.
All electrochemical measurements were carried out using a cell with a three-electrode configuration in an enclosed Faraday cage. CV and EIS measurements were completed using a CHI-660b potentiostat (CH Instruments, Austin, Tex.). rmTLR-modified gold electrodes and platinum (Pt) wire were used as the working electrode and the counter electrode, respectively. A reference electrode (Ag/AgCl/3.0M KCl) and a salt bridge, filled with an agar and 1M KNO3 aqueous solution, were inserted to minimize the diffusion of chloride ions into the electrolyte solution. The agar solution was prepared by dissolving 2.0 grams of agar and 10.1 g KNOB in 100 mL of water. The CV and EIS electrolyte was made in a 10 mM HEPES aqueous buffer at pH˜7.4, which consisted of a 5 mM K4Fe(CN)6/5 mM K3Fe(CN)6 as a redox couple with 1M of NaClO4 as the supporting electrolyte. For consistency, the electrochemical measurements were carried out with open-circuit potentials. EIS experiments were conducted in the frequency range of 100,000 to 0.1 Hz with an amplitude of 5 mV. The experimental EIS curves were evaluated to determine the film resistance using ZSimpWin 2.0 software.

The target of another assay is TLR5 (Mus musculus, UniProt Q9JLF7). Kind of assay: TLR multiplex sensor, EIS film resistance before/after exposure (Example 5), TLR5 sensor. Format: binding. To be noted: exposure 20 minutes. As for the experimental part: For each multiplex TLR sensor, 5 separate gold electrodes were used for binding TLR 1 to 5. The 5 modified electrodes/sensors were exposed to the analyte solution and evaluated one by one using potentiostats and electrochemical cells.
The preparation of each TLR biosensor was evaluated using EIS. It is understood that cyclic voltammetry as well as electrochemical impedance microscopy can also be used for monitoring the modification. […] Ethanolamine was then applied to deactivate unreacted LPA. Due to dissociation of unspecific absorbed TLR, the Rct dropped slightly. Experimental curves were evaluated using a model to obtain the Rct values, which can be seen at FIG. 9. Measurements from at least triplicated samples prepared were used to obtain statistic information.
The TLR1 sensor was exposed to an E. coli K12 whole-cell buffer solution for 20 minutes. The sensor was then removed, washed thoroughly and characterized in the electrochemical cell measuring the Rct again. The difference in Rct before and after exposure is the response triggered by the target. The same protocol was carried out for all remaining TLRs (TLRs 2-5) to obtain one set of pattern for E. coli K12 (FIGS. 10b to 10e). Multiple sets were investigated for statistical relevance. […]

In a further assay the target is T1, rmTLR3 (Mus musculus, UniProt Q99MB1).
T1 construct: purchased
T1 sequence (Q99MB1 26-905): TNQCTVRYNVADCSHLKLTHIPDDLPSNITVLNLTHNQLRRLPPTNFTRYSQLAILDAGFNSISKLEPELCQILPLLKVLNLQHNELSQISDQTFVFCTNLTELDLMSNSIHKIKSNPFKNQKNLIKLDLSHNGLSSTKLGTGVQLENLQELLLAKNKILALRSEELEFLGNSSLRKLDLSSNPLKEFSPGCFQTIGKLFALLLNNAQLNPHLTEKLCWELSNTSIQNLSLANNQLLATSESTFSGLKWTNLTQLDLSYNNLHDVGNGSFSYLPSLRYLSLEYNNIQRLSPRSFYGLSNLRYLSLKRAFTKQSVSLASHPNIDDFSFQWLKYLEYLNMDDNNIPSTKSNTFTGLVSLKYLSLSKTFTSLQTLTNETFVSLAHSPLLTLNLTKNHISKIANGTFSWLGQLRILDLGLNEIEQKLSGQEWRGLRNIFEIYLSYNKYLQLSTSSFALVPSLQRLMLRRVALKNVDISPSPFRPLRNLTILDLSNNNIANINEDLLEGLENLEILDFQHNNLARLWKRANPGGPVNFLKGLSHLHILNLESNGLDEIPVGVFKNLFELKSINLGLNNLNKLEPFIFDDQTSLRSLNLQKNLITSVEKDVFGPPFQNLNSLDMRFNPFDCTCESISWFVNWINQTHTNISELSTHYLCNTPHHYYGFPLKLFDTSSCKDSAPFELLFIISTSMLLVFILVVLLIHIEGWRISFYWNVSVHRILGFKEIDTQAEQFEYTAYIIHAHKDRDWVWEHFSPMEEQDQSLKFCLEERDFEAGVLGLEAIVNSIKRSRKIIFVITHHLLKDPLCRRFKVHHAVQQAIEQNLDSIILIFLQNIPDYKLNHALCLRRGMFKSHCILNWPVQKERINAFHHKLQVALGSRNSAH
The experiment in a line: Selectivity test, TLR3 sensor, EIS. In kind it is binding. To be noted: 10 μM.

Values joined by “and” are separate entries in the source; they are usually repeats but may differ in a detail not shown here. Identical values can stand only once.

TLR5, sequence (Q9JLF7 27-859): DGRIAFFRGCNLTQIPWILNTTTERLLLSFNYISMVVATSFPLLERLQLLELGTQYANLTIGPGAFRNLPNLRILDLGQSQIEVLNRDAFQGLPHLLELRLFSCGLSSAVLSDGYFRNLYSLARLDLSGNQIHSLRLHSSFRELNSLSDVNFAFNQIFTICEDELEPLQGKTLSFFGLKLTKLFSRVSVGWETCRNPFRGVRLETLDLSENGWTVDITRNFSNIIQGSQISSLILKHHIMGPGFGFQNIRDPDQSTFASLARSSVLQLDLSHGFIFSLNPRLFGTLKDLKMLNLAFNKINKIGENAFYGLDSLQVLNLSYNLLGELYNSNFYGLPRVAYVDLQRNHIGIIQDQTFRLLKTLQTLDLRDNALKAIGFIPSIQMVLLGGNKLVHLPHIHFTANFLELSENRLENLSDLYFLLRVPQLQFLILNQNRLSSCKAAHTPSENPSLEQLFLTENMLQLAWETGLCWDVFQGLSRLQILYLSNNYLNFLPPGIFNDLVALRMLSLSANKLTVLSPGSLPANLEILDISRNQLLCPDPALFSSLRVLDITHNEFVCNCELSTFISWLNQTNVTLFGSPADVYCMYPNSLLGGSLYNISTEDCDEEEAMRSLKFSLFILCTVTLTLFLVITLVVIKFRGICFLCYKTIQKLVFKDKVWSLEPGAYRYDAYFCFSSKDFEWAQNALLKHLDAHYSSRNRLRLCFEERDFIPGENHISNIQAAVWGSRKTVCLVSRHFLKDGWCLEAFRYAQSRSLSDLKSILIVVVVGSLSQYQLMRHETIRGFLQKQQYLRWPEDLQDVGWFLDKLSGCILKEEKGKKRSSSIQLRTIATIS

Pam3CSK4 displayed a limit of detection in the assay on rmTLR2 of 10 µM. For the same substance, the “delta Rct %” value in the assay on rmTLR2 (5 μM) was “not significant”; with rmTLR2 (10 μM), 32±6% and ~30%; in the assay on rmTLR2 (25 μM), 42±18%; with rmTLR2 (50 μM) it was 80±32%; at TLR5 it was “limited responses”. Moreover, the Rct in the assay with rmTLR2 (after 5 μM) was 7355 Ω · cm^2; in the assay on rmTLR2 (after 10 μM) it was 9446 Ω · cm^2; with rmTLR2 (after 25 μM), 12770 Ω · cm^2; with rmTLR2 (after 50 μM), 17610 Ω · cm^2. Further, at rmTLR3, the “electrochemical response (selectivity test)” value is listed as “slight signal variations”.
